Measured values as given in patent US20220274927A1, “MEMBRANE-ACTIVE ANTI-BACTERIAL COMPOUNDS AND USES THEREOF” (Trustees of Dartmouth College, priority 2019, published 2022).
Values after ≈ are worked out from the molar mass of the structure shown. “Also recorded” adds a separate entry of the source. Like-named read-outs stand apart in the source and are kept apart here.

Columns and labels:
[1] = system: methicillin-resistant S. aureus (FPR3757); test: MIC against clinical MRSA strain FPR3757 in Mueller-Hinton broth (CLSI); assay type: cell-based, Staphylococcus aureus; conditions: MRSA clinical strain FPR3757, Mueller-Hinton broth, CLSI guidelines, complete inhibition of observable growth
Text: (§1) The first set of compounds evaluated were analogs at the C-7 and C-8 positions of the initial quinolone hit DNAC-2 since the other HTS hits identified (data not shown) were substituted at these positions (Table 1). Applicants first explored modification at the C-7 position with a small series of electron-donating and withdrawing substituents. […] However, analogs containing electron donating groups at C-7 including ethyl 7, benzyloxy 8, methoxy 9 and methylthio 10 are weakly active displaying MICs of 320-640 μg/mL indicating electron-donating substituents at C-7 are poorly tolerated. […] The C-8 position was evaluated with trifluoromethyl 4 and trifluoromethoxy 5 containing the optimal C-7 substituents. Both 4 and 5 are equipotent to the corresponding C-7 analogs 2 and 3 indicating some flexibility of the quinolone scaffold.

sheep erythrocytes = test: in vitro; assay type: cell-based; conditions: for hemolysis: sheep, 32 μg/mL
Experimental: (§2) FIG. 8 illustrates percent hemolysis analysis of sheep erythrocytes. Concentration-dependent hemolysis was measured by monitoring the optical density (OD)540 of PBS-washed sheep erythrocytes. Complete hemolysis (100%) was confirmed by treatment of erythrocytes with Triton X-100. Data points represent the mean±SD of triplicate experiments.
(§3) The macromolecular synthesis assay, TEM, and FM experiments were all consistent with membrane disruption. […] The high membrane selectivity of the 5-aminoquinolin-4-ones in this assay is impressive and is in accordance with the observed therapeutic index (CC50/MIC).

[2] = system: S. aureus membranes (versus erythrocyte membranes); test: in vitro; assay type: cell-based, sheep; conditions: sheep
Experimental: as §2, §3

E. faecalis DHMC #1 = test: Antimicrobial susceptibility MIC, E. faecalis DHMC #1; assay type: cell-based; conditions: Enterococcus faecalis; E. faecalis strain DHMC #1
Text: as §1
(§4) The compounds maintain activity against Staphylococcus epidermidis; however, 31, 111 and 123 all lose considerable potency against Enterococcus faecalis and Enterococcus faecium, which contribute heavily, along with MRSA, to healthcare-associated infections.

[3] = system: S. aureus (strain USA300); test: Transmission electron microscopy of treated cells; assay type: cell-based; conditions: 1× MIC, after 10 minutes, vs DMSO
Experimental: FIGS. 6A, 6B and 6C illustrate transmission electron microscopy (TEM) imaging of MRSA USA300 treated with compounds 22 and 31.
Transmission electron microscopy (TEM) and fluorescence microscopy (FM) allowed Applicants to directly observe the effects of the novel 4-aminoquinolines […] 5-aminoquinolones on the cell morphology of staphylococci.
(§5) These cellular defects were not seen in any of the control cells treated with DMSO. Fluorescent microscopy was performed on a S. aureus (strain COL) strain after treatment with either DMSO, 31 or 123 for 30 minutes followed by staining with FM 4-64 (red membrane stain), bodipy-vancomycin (Van-FL, green stain), and Hoechst (blue DNA stain).

S. aureus N325 = test: Antimicrobial susceptibility MIC, S. aureus N325; assay type: cell-based; conditions: Staphylococcus aureus; S. aureus strain N325
Text: as §1, §4

Staphylococcus simulans = test: Macromolecular synthesis assays (radiolabeled precursor incorporation); assay type: cell-based
Text: FIG. 5 illustrates macromolecular synthesis assays (representative data with 123). Time-course for inhibition of incorporation of radiolabeled precursors [^3H]-L-isoleucine (protein), [^3H]-thymidine (DNA), [^3H]-uridine (RNA), and [^3H]-glucosamine (cell wall) in S. simulans by 123 at 0.5×, 1× and 5×MIC. Data are expressed as the percentage of inhibition relative to the DMSO only negative control. The positive control antibiotics denoted by closed circles were used at 10× MIC. Data represent the mean±standard deviation (SD) of triplicate experiments.
Classical macromolecular synthesis assays were performed to provide insight on the putative mechanism of action of the most promising quinoline 31 and quinolone 123 candidates. Disruption of bacterial membranes is not only rapid, but interferes with all major metabolic activities in the cell and is thus easily distinguished by macromolecular synthesis assays. […] The control antibiotics ciprofloxacin, rifampicin, vancomycin and tetracycline were included as inhibitors of DNA, RNA, cell wall, and protein synthesis, respectively. The cells were quenched at various time points with 10% trichloroacetic acid (TCA), filtered, washed and the amount of precursor incorporation was quantified by scintillation counting.

[4] = system: clinical methicillin-resistant Staphylococcus aureus (MRSA) isolates; test: MIC against panel of MRSA / staphylococcal strains (text summaries); assay type: cell-based
Text: as §1, §4

S. aureus (strain COL) = test: Fluorescent microscopy of membrane, cell wall and DNA; assay type: cell-based; conditions: 1× MIC, 30 minutes, vs DMSO
Experimental: FIGS. 7A and 7B illustrate fluorescent microscopy (FM) analysis of the membrane, cell wall, and DNA in MRSA. FM of COL MRSA strain treated with compound 123 (FIG. 7B, bottom row) at 1×MIC and DMSO (FIG. 7A, top row) for 30 minutes followed by staining with FM-64 (far left column, 0.5 μg/mL), VanFL (second column, 1 μg/mL), and Hoechst (third column, 1 μg/mL) for 5 minutes and washed with 1× phosphate buffered saline (PBS) before imaging (fourth column, overlay).
as §5

S. aureus NRS71 = test: Antimicrobial susceptibility MIC, S. aureus NRS71; assay type: cell-based; conditions: Staphylococcus aureus; S. aureus strain NRS71
Text: as §1, §4

S. aureus NIH04008 = test: Antimicrobial susceptibility MIC, S. aureus NIH04008; assay type: cell-based; conditions: Staphylococcus aureus; S. aureus strain NIH04008; read-out: MIC
Text: as §1, §4

S. aureus MW2 = test: Antimicrobial susceptibility MIC, S. aureus MW2; assay type: cell-based; conditions: Staphylococcus aureus; S. aureus strain MW2; read-out: MIC
Text: as §1, §4

S. aureus COL = test: Antimicrobial susceptibility MIC, S. aureus COL; assay type: cell-based; conditions: Staphylococcus aureus; S. aureus strain COL
Text: as §1, §4

E. faecium DHMC #1 = test: Antimicrobial susceptibility MIC, E. faecium DHMC #1; assay type: cell-based; conditions: Enterococcus faecium; E. faecium strain DHMC #1
Text: as §1, §4

[5] = system: MRSA clinical strain S. aureus FPR3757; test: Minimum bactericidal concentration (MBC) against S. aureus FPR3757; assay type: cell-based
S. epidermidis NIH04003 = test: Antimicrobial susceptibility MIC, S. epidermidis NIH04003; assay type: cell-based; conditions: Staphylococcus epidermidis; S. epidermidis strain NIH04003
Text: as §1, §4

S. aureus (MRSA) = test: In vitro time-kill assay; assay type: cell-based; conditions: 1× MIC, initial inoculum 10^5 CFU, plating over six hours
Experimental: FIG. 4 illustrates in vitro time-kill analysis of methicillin resistant Staphylococcus aureus (MRSA). Bacterial killing was monitored by measuring the colony forming unit (CFU) for six hours when treated with compounds 22, 31, 117, and 123 at 1× the minimum inhibitory concentration (MIC) of each compound. The CFU at each time point was determined by plating and then compared to a dimethyl sulfoxide (DMSO) control.
While the MIC data confirmed that these compounds were at least bacteriostatic, Applicants wanted to test for bactericidal properties of both the aminoquinoline and aminoquinolone scaffolds. […] The kinetics of bacterial killing was assessed in vitro using time-kill assays by incubating compounds at 1× their MIC with an initial inoculum of 10^5 colony forming units (CFU) of S. aureus and removing aliquots at various time points to determine the residual CFU by plating.

[6] = Staphylococcus aureus, MRSA, read-out: MIC

**Q.** Which results are given for O=c1cc(C(F)(F)F)[nH]c2cc(C(F)(F)F)cc(NC3CCC(C(F)(F)F)CC3)c12 (centres unmarked) [Compound 117]?
**A.** MIC [1, 6]: < 0.06 µg/mL; hemolysis (sheep erythrocytes): None of the compounds except 76, displayed any hemolysis; selectivity ratio [2]: > 500

**Q.** With O=c1cc(C(F)(F)F)[nH]c2cc(C(F)(F)F)cc(N3CCOCC3)c12 [Compound 118] as the molecule, how does the MIC [1, 6] read?
**A.** The MIC was greater than 32 µg/mL.

**Q.** How did the MIC [1, 6] turn out when O=c1cc(C(F)(F)F)[nH]c2cc(Nc3ccc(Cl)c(Cl)c3)cc(C(F)(F)F)c12 [Compound 119] was run?
**A.** The MIC was 1 µg/mL (≈ 2.27 µM).

**Q.** For O=c1cc(C(F)(F)F)[nH]c2cc(Nc3ccc(F)c(F)c3)cc(C(F)(F)F)c12 [Compound 120], which MIC [1, 6] is on record?
**A.** Its MIC is 4 µg/mL (≈ 9.8 µM).

**Q.** With O=c1cc(C(F)(F)F)[nH]c2cc(Nc3ccc(C(F)(F)F)cn3)cc(C(F)(F)F)c12 [Compound 122] as the molecule, how does the MIC [1] read?
**A.** The MIC was 4 µg/mL (≈ 9.07 µM).

**Q.** How did the MIC [1] turn out when O=c1cc(C(F)(F)F)[nH]c2cc(F)cc(Nc3ccc(C(F)(F)F)cn3)c12 [Compound 123] was run?
**A.** The MIC was less than 0.06 µg/mL.

**Q.** And the MIC [1, 6]?
**A.** Its MIC is less than 0.06 µg/mL.

**Q.** What about the MIC (E. faecalis DHMC #1) of the same molecule?
**A.** The MIC was 8 µg/mL (≈ 20.4 µM).

**Q.** And the “cell morphology in TEM images” value [3]?
**A.** The value was “cross-wall-septum formation with reduced splitting; also recorded: mesosome-like membrane inclusions”.

**Q.** What about the MIC (S. aureus N325) of the same molecule?
**A.** Its MIC is less than 0.06 µg/mL.

**Q.** And the “inhibition of DNA, RNA, protein and cell-wall synthesis” value (Staphylococcus simulans; 0.5×, 1× and 5× MIC)?
**A.** Its value is “concentration-dependent inhibition of DNA, RNA, protein and cell-wall synthesis”.

**Q.** What about the “inhibition of macromolecular processes at 5× MIC” value (Staphylococcus simulans; 5× the MIC, DNA, RNA, protein, cell wall precursor incorporation) of the same molecule?
**A.** The value was “completely inhibited all macromolecular processes”.

**Q.** And the hemolysis (sheep erythrocytes)?
**A.** The hemolysis was “None of the compounds except 76, displayed any hemolysis”.

**Q.** And the selectivity ratio [2]?
**A.** Its selectivity ratio is greater than 500.

**Q.** And the MIC ([4]; read-out: MIC against numerous clinical MRSA isolates)?
**A.** Its MIC is no more than 0.06 µg/mL.

**Q.** And the MIC ([4]; six S. aureus strains of Table 9, read-out: MIC towards all six S. aureus strains)?
**A.** The MIC was less than 0.06 µg/mL.

**Q.** And the “DNA and cell wall staining (Hoechst, Van-FL)” value (S. aureus (strain COL))?
**A.** The value was “little or no change compared to the DMSO control”.

**Q.** And the “membrane staining (FM 4-64)” value (S. aureus (strain COL))?
**A.** Its value is “membrane defects”.

**Q.** What about the MIC (S. aureus NRS71) of the same molecule?
**A.** The MIC was less than 0.06 µg/mL.

**Q.** What about the MIC (S. aureus NIH04008) of the same molecule?
**A.** Its MIC is less than 0.06 µg/mL.

**Q.** What about the MIC (S. aureus MW2) of the same molecule?
**A.** The MIC was less than 0.06 µg/mL.

**Q.** And the MIC (S. aureus COL)?
**A.** Its MIC is less than 0.06 µg/mL.

**Q.** And the MIC (E. faecium DHMC #1)?
**A.** Its MIC is 8 µg/mL (≈ 20.4 µM).

**Q.** What about the “MBC relative to MIC” value [5] of the same molecule?
**A.** Its value is “MBCs equal to their MIC values”.

**Q.** What about the MIC (S. epidermidis NIH04003) of the same molecule?
**A.** The MIC was less than 0.06 µg/mL.

**Q.** What about the “time-kill: CFU reduction” value (S. aureus (MRSA)) of the same molecule?
**A.** Its value is “reduced the CFU below the limit of detection at four to six hours”.

**Q.** Triton X-100 [reference compound] was tested. Which “lysis (positive control)” value (sheep erythrocytes) did it give?
**A.** The value was 100%.
